Experimental data from patent US9994594B2, “Inhibitors of arginase and their therapeutic applications” (MARS, INCORPORATED, priority 2010, dated 2018).
Where a name gives a salt, the structure may show the parent alone. Read-outs that look alike come from different tables or passages of the source.

Experiments:
human arginase I (ARG I) = target: T1, human arginase I (ARG I) (Homo sapiens, UniProt P05089); assay: Inhibition of arginase I, spectrophotometric urea assay at 530 nm; format: biochemical; details: read-out: Potency (ARG I)
T1 sequence (P05089 1-322): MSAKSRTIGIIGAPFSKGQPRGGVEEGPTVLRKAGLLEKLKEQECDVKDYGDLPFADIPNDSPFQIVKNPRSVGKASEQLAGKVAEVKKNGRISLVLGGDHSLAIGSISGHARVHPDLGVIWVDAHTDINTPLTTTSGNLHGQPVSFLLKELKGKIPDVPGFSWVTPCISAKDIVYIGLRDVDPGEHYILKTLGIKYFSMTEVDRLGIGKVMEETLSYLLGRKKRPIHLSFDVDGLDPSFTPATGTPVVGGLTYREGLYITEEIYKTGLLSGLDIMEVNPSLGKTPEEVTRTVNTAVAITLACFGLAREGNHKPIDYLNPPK
Description: (§1) The assay established the concentration of inhibitor that is required to reduce arginase activity by 50% (IC50).
(§2) Inhibition of arginase I (ARG I) and arginase II (ARG II) by Formula I and Formula II compounds is followed spectrophotometrically at 530 nm. The compound to be tested is dissolved in DMSO at an initial concentration 50-fold greater than its final concentration in the cuvette. 10 μl of the stock solution is diluted in 90 μl of the assay buffer that comprises 0.1M sodium phosphate buffer containing 130 mM NaCl, pH 7.4, to which is added ovalbumin (OVA) at a concentration of 1 mg/ml. Solutions of arginase I and II are prepared in 100 mM sodium phosphate buffer, pH 7.4 containing 1 mg/ml of OVA to give an arginase stock solution at a final concentration of 100 ng/ml.
(§3) To each well of a 96-well microtiter plate is add 40 μl of enzyme, 10 μl of an inventive compound and 10 μl of enzyme substrate (L-arginine+manganese sulfate). For wells that are used as positive controls, only the enzyme and its substrate are added, while wells used as negative controls contain only manganese sulfate.
(§4) After incubating the microtiter plate at 37° C. for 60 minutes, 150 μl of a urea reagent obtained by combining equal proportions (1:1) of reagents A and B is added to each well of the microtiter plate to stop the reaction. The urea reagent is made just before use by combining Reagent A (10 mM o-phthaldialdehyde, and 0.4% polyoxyethylene (23) lauryl ether (w/v) in 1.8 M sulfuric acid) with Reagent B (1.3 mM primaquine diphosphate, 0.4% polyoxyethylene (23) lauryl ether (w/v), 130 mM boric acid in 3.6 M sulfuric acid). After quenching the reaction mixture, the microtiter plate is allowed to stand for an additional 10 minutes at room temperature to allow color development. The inhibition of arginase is computed by measuring the optical density (OD) of the reaction mixture at 530 nm and normalizing the OD value to percent inhibition observed in the control. The normalized OD is then used to generate a dose-response curve by plotting the normalized OD values against log [concentration] and using regression analysis to compute the IC50 values.

arginase II (ARG II) = target: T2, arginase II (ARG II) (Homo sapiens, UniProt P78540); assay: Inhibition of arginase II, spectrophotometric urea assay at 530 nm; format: biochemical
T2 sequence (P78540 23-354): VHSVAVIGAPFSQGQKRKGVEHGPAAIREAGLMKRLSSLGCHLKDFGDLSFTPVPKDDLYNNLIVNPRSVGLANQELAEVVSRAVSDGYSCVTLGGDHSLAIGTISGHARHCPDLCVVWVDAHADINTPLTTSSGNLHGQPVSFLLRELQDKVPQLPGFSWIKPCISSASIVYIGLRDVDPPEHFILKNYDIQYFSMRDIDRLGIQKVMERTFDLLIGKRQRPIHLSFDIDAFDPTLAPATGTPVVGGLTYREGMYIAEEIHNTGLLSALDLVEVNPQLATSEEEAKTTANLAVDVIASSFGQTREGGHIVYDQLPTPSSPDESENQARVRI
Description: as §1, §2, §3, §4

[1] = Formula II compounds, Table 2-A
[2] = Formula II compounds, Table 2-A, read-out: Potency (ARG)
[3] = Formula I compounds, Table 2, read-out: Potency (ARG II)

Row | IC50 (human arginase I (ARG I); [1]) [nM] | IC50 (arginase II (ARG II); [2]) [nM] | IC50 (human arginase I (ARG I); Formula I compounds, Table 2) [nM] | IC50 (arginase II (ARG II); [3]) [nM] | Structure (SMILES)
1 | > 5000 | > 5000 |  |  | NC(CCCCB(O)O)(C(=O)O)C1CCC(c2ccc(Cl)cc2)CC1 (centres unmarked) [Example 86-A, 2-amino-6-borono-2-(4-(4-chlorophenyl)cyclohexyl)hexanoic acid hydrochloride]
2 |  |  | 0.1 to 250 | 251 to 1000 | N[C@](CCCCB(O)O)(CCN1CCCCC1)C(=O)O [compound 13, (R)-2-amino-6-borono-2-(2-(piperidin-1-yl)ethyl)hexanoic acid]
3 |  |  | 1000 to 2000 | 2000 to 5000 | CCC(O)C(N)(CCCCB(O)O)C(=O)O (centres unmarked) [compound 108, 2-amino-6-borono-2-(1-hydroxypropyl)hexanoic acid hydrochloride]
4 |  |  | 0.1 to 250 | 0.1 to 250 | COc1ccc(CNCCC(N)(CCCCB(O)O)C(=O)O)cc1 (centres unmarked) [compound 69, 2-amino-6-borono-2-(2-(4-methoxybenzylamino)ethyl)hexanoic acid dihydrochloride]
5 |  |  | 2000 to 5000 | 2000 to 5000 | NC(CCCCB(O)O)(CCOc1cccc(C(F)(F)F)c1)C(=O)O (centres unmarked) [compound 95, 2-Amino-6-borono-2-[2-(3-trifluoromethylphenoxy)-ethyl]-hexanoic acid hydrochloride]
6 |  |  | 2000 to 5000 | > 5000 | CC(N)(CCCCB(O)O)C(=O)O (centres unmarked) [compound 97, 2-Amino-6-borono-2-methylhexanoic acid hydrochloride]
7 |  |  | 1000 to 2000 | 1000 to 2000 | COc1ccc(CN(C)CCC(N)(CCCCB(O)O)C(=O)O)cc1 (centres unmarked) [compound 27, 2-amino-6-borono-2-(2-((4-methoxybenzyl)(methyl)amino)ethyl)hexanoic acid dihydrochloride]
8 |  |  | 2000 to 5000 | 2000 to 5000 | CN(C)CCN(C)CCC(N)(CCCCB(O)O)C(=O)O (centres unmarked) [compound 71, 2-amino-6-borono-2-(2-((2-(dimethylamino)ethyl)(methyl)amino)ethyl)hexanoic acid trihydrochloride]
9 |  |  | 0.1 to 250 | 0.1 to 250 | CNC(CCCCB(O)O)(CCCNCc1ccc(Cl)c(Cl)c1)C(=O)O (centres unmarked) [compound 136, 6-borono-2-(3-(3,4-dichlorobenzylamino)propyl)-2-(methylamino)hexanoic acid dihydrochloride]
10 | 0.1 to 250 | 0.1 to 250 |  |  | NC(CCCCB(O)O)(C(=O)O)[C@H]1C[C@@H](NCc2cccc3ccccc23)C1 (stereo partly drawn) [Example 80-A, cis-2-amino-6-borono-2-(3-(naphthalen-1-ylmethylamino)cyclobutyl)hexanoic acid dihydrochloride]
11 | 251 to 1000 | 251 to 1000 |  |  | NC(CCCCB(O)O)(C(=O)O)C1CCN(Cc2ccccc2C(F)(F)F)CC1 (centres unmarked) [Example 53-A, 2-amino-6-borono-2-(1-(2-(trifluoromethyl)benzyl)piperidin-4-yl)hexanoic acid dihydrochloride]
12 | 251 to 1000 | 1000 to 2000 |  |  | NC(CCCCB(O)O)(C(=O)O)C1CCN(C(=S)NCc2ccc(Cl)cc2)CC1 (centres unmarked) [Example 43-A, 2-amino-6-borono-2-(1-(4-chlorobenzylcarbamothioyl)piperidin-4-yl)hexanoic acid]
13 | 0.1 to 250 | 251 to 1000 |  |  | NC(CCCCB(O)O)(C(=O)O)C1CCCN(Cc2ccc(Cl)c(Cl)c2)CC1 (centres unmarked) [Example 73-A, 2-amino-6-borono-2-(1-(3,4-dichlorobenzyl)azepan-4-yl)hexanoic acid dihydrochloride]
14 |  |  | 251 to 1000 | 251 to 1000 | NC(CCCCB(O)O)(CCN1CCC(Cc2ccccc2)CC1)C(=O)O (centres unmarked) [compound 125, 2-amino-2-(2-(4-benzylpiperidin-1-yl)ethyl)-6-boronohexanoic acid dihydrochloride]
15 | 251 to 1000 | 251 to 1000 |  |  | NC(CCCCB(O)O)(C(=O)O)C1CCN(Cc2ccc(Cl)cc2Cl)CC1 (centres unmarked) [Example 97-A, 2-amino-6-borono-2-(1-(2,4-dichlorobenzyl)piperidin-4-yl)hexanoic acid dihydrochloride]
16 | 0.1 to 250 | 0.1 to 250 |  |  | NC(CCCCB(O)O)(C(=O)O)[C@H]1C[C@@H](NCc2ccccc2)C1 (stereo partly drawn) [Example 74-A, cis-2-amino-2-(3-(benzylamino)cyclobutyl)-6-boronohexanoic acid dihydrochloride]
